Activity calls are given as the source filed them. No cut-off for these calls is given here. Where only a bound is given, the exact number is not on record here.

Chain of Myc proto-oncogene protein (Homo sapiens) (P01106 whole entry): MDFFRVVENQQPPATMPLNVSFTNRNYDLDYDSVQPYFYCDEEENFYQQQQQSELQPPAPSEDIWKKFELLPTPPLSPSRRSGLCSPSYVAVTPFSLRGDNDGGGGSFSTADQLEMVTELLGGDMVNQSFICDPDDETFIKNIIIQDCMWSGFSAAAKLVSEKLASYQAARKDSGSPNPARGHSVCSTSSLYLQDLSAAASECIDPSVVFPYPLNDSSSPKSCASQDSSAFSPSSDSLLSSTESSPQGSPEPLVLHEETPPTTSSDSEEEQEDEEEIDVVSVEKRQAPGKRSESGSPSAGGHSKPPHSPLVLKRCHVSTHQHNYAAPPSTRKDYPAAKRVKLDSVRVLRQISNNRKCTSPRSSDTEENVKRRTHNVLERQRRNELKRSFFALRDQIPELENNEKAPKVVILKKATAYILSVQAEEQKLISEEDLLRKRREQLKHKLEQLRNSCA
Chain of c-Myc/c-Max (P01106 whole entry): as above
Chain of c-Myc/c-Max (P61244 whole entry, further chain): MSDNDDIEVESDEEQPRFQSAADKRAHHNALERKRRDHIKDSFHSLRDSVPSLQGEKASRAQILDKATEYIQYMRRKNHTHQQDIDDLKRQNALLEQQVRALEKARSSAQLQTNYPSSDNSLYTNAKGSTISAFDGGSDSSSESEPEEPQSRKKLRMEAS

The first assay has as its system HL-60. As to the kind of experiment: Antiproliferative activity against human HL-60 cells assessed as inhibition of cell proliferation incubated for 72 hrs. In kind it is functional, cell-based. The following applies: HL-60, 72 h.
Turning to `O=C(NC(NC(=S)Nc1cccc(Cl)c1)C(Cl)(Cl)Cl)OCc1ccccc1` (stereo not drawn), the EC50 worked out at 8.3 µM. On the same count and under the same terms, with `COC(=O)c1ccc(NC(=S)NC(NC(=O)c2cccc3ccccc23)C(Cl)(Cl)Cl)cc1` (stereo not drawn) the figure was 7.3 µM; with `O=C(NC(NC(=S)Nc1ccc(Br)cc1)C(Cl)(Cl)Cl)OCc1ccccc1` (stereo not drawn), 6.1 µM; with `Cc1ccc(NC(=S)NC(NC(=O)c2ccccc2)C(Cl)(Cl)Cl)cc1` (stereo not drawn), 4.2 µM. As for `O=C(NC(NC(=S)Nc1ccccc1)C(Cl)(Cl)Cl)OCc1ccccc1` (stereo not drawn), the EC50 came out at 16.7 µM.

As for `Cc1ccc(NC(=S)NC(NC(=O)CC(C)C)C(Cl)(Cl)Cl)cc1` (stereo not drawn), the EC50 came out at 33.7 µM.

Take `Cc1cccc(NC(=S)NC(NC(=O)CF)C(Cl)(Cl)Cl)c1` (stereo not drawn): the EC50 was greater than 100 µM.

As for `COc1ccccc1NC(=S)NC(NC=O)C(Cl)(Cl)Cl` (stereo not drawn), the EC50 was greater than 100 µM.

Take `CC(=O)NC(NC(=S)Nc1c(Cl)cc(Cl)cc1Cl)C(Cl)(Cl)Cl` (stereo not drawn): the EC50 was 24 µM.

Regarding `Cc1cccc(NC(=S)NC(NC(=O)c2ccccc2)C(Cl)(Cl)Cl)c1` (stereo not drawn), the EC50 amounted to 10.6 µM. Regarding `O=C(CF)NC(NC(=S)Nc1ccc(Cl)cc1)C(Cl)(Cl)Cl` (stereo not drawn), the EC50 was 24.8 µM.

As for `COc1ccc(NC(=S)NC(NC(=O)Cc2ccccc2)C(Cl)(Cl)Cl)cc1` (stereo not drawn), the EC50 was greater than 50 µM. The same measure, in the same setting: with `O=C(NC(NC(=S)Nc1ccc(I)cc1)C(Cl)(Cl)Cl)c1cccc(I)c1` (stereo not drawn) the figure was 3.3 µM; with `Cc1ccc(C(=O)NC(NC(=S)Nc2cc(C(F)(F)F)ccc2Cl)C(Cl)(Cl)Cl)cc1` (stereo not drawn), 8.7 µM; with `Cc1ccc(NC(S)=NC(NC(=O)N(C)C)C(Cl)(Cl)Cl)cc1` (stereo not drawn), greater than 50 µM. The same measure, in the same setting: to `CCOC(=O)NC(NC(=S)Nc1ccc(C)cc1)C(Cl)(Cl)Cl` (stereo not drawn) belongs greater than 50 µM; to `Cc1ccc(NC(=S)NC(NC(=O)c2ccc(Br)cc2)C(Cl)(Cl)Cl)cc1` (stereo not drawn), 17.2 µM; to `NS(=O)(=O)c1ccc(NC(=S)NC(NC(=O)c2ccccc2)C(Cl)(Cl)Cl)cc1` (stereo not drawn), greater than 50 µM. Still for that read-out and setting: with `Cc1ccccc1N=C(S)NC(NC(=O)CF)C(Cl)(Cl)Cl` (stereo not drawn) the figure was greater than 100 µM; with `Cc1ccccc1C(=O)NC(NC(=S)Nc1ccc(Cl)c(Cl)c1)C(Cl)(Cl)Cl` (stereo not drawn), 4.5 µM. Take `O=C(NC(NC(=S)Nc1ccc(Cl)cc1)C(Cl)(Cl)Cl)OCc1ccccc1` (stereo not drawn): the EC50 worked out at 6.1 µM. Same read-out and setting: with `CC(=O)Nc1ccc(NC(=S)NC(NC(=O)c2ccccc2C)C(Cl)(Cl)Cl)cc1` (stereo not drawn) the figure was greater than 50 µM; with `Cc1ccc(NC(=S)NC(NC(=O)Cc2ccccc2)C(Cl)(Cl)Cl)cc1` (stereo not drawn), greater than 50 µM.

`O=C(NC(NC(=S)Nc1ccc(Cl)cc1)C(Cl)(Cl)Cl)c1ccccc1` (stereo not drawn): the EC50 is 5 µM. Still for that read-out and setting: with `O=C(NCNC(=S)Nc1ccc(Cl)cc1)c1ccccc1` the figure was greater than 50 µM; with `O=C(NC(NC(=S)Nc1cccc2ccccc12)C(Cl)(Cl)Cl)OCc1ccccc1` (stereo not drawn), 6.9 µM. Same read-out and setting: to `Cc1ccccc1C(=O)NC(NC(=S)Nc1ccccc1I)C(Cl)(Cl)Cl` (stereo not drawn) belongs 13.8 µM; to `O=C(NC(NC(=S)Nc1ccc(Cl)cc1Cl)C(Cl)(Cl)Cl)c1ccccc1` (stereo not drawn), 9.1 µM; to `COC(=O)c1ccccc1NC(=S)NC(NC(=O)c1ccc(C)cc1)C(Cl)(Cl)Cl` (stereo not drawn), 23.1 µM. Still for that read-out and setting: to `O=C(NC(NC(=S)Nc1ccc(Cl)cc1)C(Cl)(Cl)Cl)c1ccccc1Cl` (stereo not drawn) belongs 5.9 µM; to `Cc1cccc(NC(=S)NC(NC(=O)Cc2ccccc2)C(Cl)(Cl)Cl)c1` (stereo not drawn), greater than 100 µM; to `CCOC(=O)NC(NC(=S)Nc1c(Cl)cc(Cl)cc1Cl)C(Cl)(Cl)Cl` (stereo not drawn), 42.8 µM. As to `Cc1ccccc1C(=O)NC(NC(=S)Nc1ccccc1)C(Cl)(Cl)Cl` (stereo not drawn), the EC50 was 10.8 µM. With `CCCCCC(=O)NC(NC(=S)Nc1ccc(C)cc1)C(Cl)(Cl)Cl` (stereo not drawn), the EC50 is greater than 50 µM. On the same count and under the same terms, to `CC(C)C(=O)NC(NC(=S)Nc1ccc(Cl)cc1)C(Cl)(Cl)Cl` (stereo not drawn) belongs greater than 100 µM; to `Cc1ccc(N=C(S)NC(NC(=O)c2ccccc2)C(Cl)(Cl)Cl)c(C)c1` (stereo not drawn), 8.1 µM; to `CCOC(=O)NC(NC(=S)Nc1ccc(I)cc1)C(Cl)(Cl)Cl` (stereo not drawn), 9.9 µM. `O=C(Cc1ccccc1)NC(NC(=S)Nc1ccc(Cl)c(Cl)c1)C(Cl)(Cl)Cl` (stereo not drawn): the EC50 was 32.5 µM. With `O=C(NC(NC(=S)Nc1ccc(Cl)c(Cl)c1)C(Cl)(Cl)Cl)OCc1ccccc1` (stereo not drawn), the EC50 was 8.2 µM. The same measure, in the same setting: with `Cc1ccc(NC(=S)NC(NC(=O)OCc2ccccc2)C(Cl)(Cl)Cl)cc1` (stereo not drawn) the figure was 24.9 µM; with `O=C(NC(NC(=S)Nc1ccc(F)cc1)C(Cl)(Cl)Cl)OCc1ccccc1` (stereo not drawn), 11.7 µM. Still for that read-out and setting: to `COC(=O)c1ccc(NC(=S)NC(NC(=O)c2ccccc2C)C(Cl)(Cl)Cl)cc1` (stereo not drawn) belongs 14.3 µM. Same read-out and setting: with `O=C(CF)NC(NC(=S)Nc1ccccc1Cl)C(Cl)(Cl)Cl` (stereo not drawn) the figure was greater than 50 µM. For `COC(=O)c1ccc(NC(=S)NC(NC(=O)OCc2ccccc2)C(Cl)(Cl)Cl)cc1` (stereo not drawn), the EC50 worked out at 10.2 µM. For the compound `Cc1cccc(NC(=S)NC(NC(=O)c2ccccc2C)C(Cl)(Cl)Cl)c1` (stereo not drawn), the EC50 is 22.9 µM.

Turning to `COc1ccc(NC(=S)NC(NC(=O)OCc2ccccc2)C(Cl)(Cl)Cl)cc1` (stereo not drawn), the EC50 was greater than 50 µM. Same read-out and setting: with `O=C(NC(NC(=S)Nc1ccc(Cl)cc1Cl)C(Cl)(Cl)Cl)OCc1ccccc1` (stereo not drawn) the figure was 10.6 µM. Still for that read-out and setting: to `O=C(/C=C/c1ccccc1)NC(NC(=S)Nc1cccc2ccccc12)C(Cl)(Cl)Cl` (stereo not drawn) belongs 3.4 µM. Still for that read-out and setting: with `CCCCCCCCC(=O)NC(NC(=S)Nc1ccccc1C)C(Cl)(Cl)Cl` (stereo not drawn) the figure was greater than 100 µM.

The next assay concerns the target Myc proto-oncogene protein (Homo sapiens) (UniProt P01106). Put plainly: Induction of c-Myc degradation in human HL-60 cells assesses as decrease in c-Myc protein level measured after 24 hrs by Western blot analysis. In kind it is cell-based. To be noted: dose 3.125-25 µM. On the technique in general: In western blotting, separated proteins are transferred to a membrane and probed.
With `O=C(NC(NC(=S)Nc1ccc(I)cc1)C(Cl)(Cl)Cl)c1cccc(I)c1` (stereo not drawn), the Activity result is “Dose-dependent effect”.

System in a further assay: not listed separately
Put plainly: Antiproliferative activity against human Mutu-1 assessed as reduction in cell viability measured after 2 hrs. In kind it is functional. To be noted: Mutu-1, 2 h.
For `CCOc1ccc2nc3cc(/N=N/c4ccc(N)nc4N)ccc3c(N)c2c1`, the 50% effective concentration (EC50) is 0.5 µM.

The test system of a further assay is ST486. As to the kind of experiment: Antiproliferative activity against human ST486 assessed as reduction in cell viability measured after 2 hrs. To be noted: ST486, 2 h. In kind it is functional, cell-based.
Regarding `CCOc1ccc2nc3cc(/N=N/c4ccc(N)nc4N)ccc3c(N)c2c1`, the EC50 amounted to 0.5 µM.

In the next assay the test system is HL-60. Put plainly: Induction of apoptosis in human HL-60 cells at 1 to 20 uM measured after 24 hrs by FITC-Annexin-v/propidium iodide staining based flow cytometry. In kind it is functional, cell-based. The following applies: dose 1-20 µM.
Regarding `O=C(NC(NC(=S)Nc1ccc(I)cc1)C(Cl)(Cl)Cl)c1cccc(I)c1` (stereo not drawn), the outcome was Active.

Another assay addresses c-Myc/c-Max (Homo sapiens, UniProt P01106). Put plainly: (§1) Inhibition of Nanoluc-tagged c-Myc/Halo-tagged MAX (unknown origin) interaction expressed in HEK293T cells assessed as degradation measured after 4 to 6 hrs by NanoBRET assay. In kind it is cell-based.
Settings: not given
(In general: BRET reads energy transfer from a luciferase to a nearby fluorophore.)
With `O=C(NC(NC(=S)Nc1ccc(I)cc1)C(Cl)(Cl)Cl)c1cccc(I)c1` (stereo not drawn), the EC50 worked out at 29.1 µM.

In the next assay the target is c-Myc/c-Max (Homo sapiens) (UniProt P01106+P61244). The description is as §1. In kind it is cell-based. The following applies: time 4-6 hrs.
Chain of c-Myc/c-Max (Homo sapiens) (P01106 whole entry): as the sequence (P01106 whole entry) above
Chain of c-Myc/c-Max (Homo sapiens) (P61244 2-160 partner limits assumed): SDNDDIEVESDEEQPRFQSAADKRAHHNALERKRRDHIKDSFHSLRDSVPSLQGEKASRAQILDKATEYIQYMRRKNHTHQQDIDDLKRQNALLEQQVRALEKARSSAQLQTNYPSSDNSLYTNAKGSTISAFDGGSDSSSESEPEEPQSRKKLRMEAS
Take `O=C(NC(NC(=S)Nc1ccc(I)cc1)C(Cl)(Cl)Cl)c1cccc(I)c1` (stereo not drawn): the inhibition result was “Dose-dependent effect”.

Another assay has as its system Daudi. As to the kind of experiment: Antiproliferative activity against human Daudi assessed as reduction in cell viability measured after 2 hrs.
Settings: not given
In kind it is functional, cell-based.
For `CCOc1ccc2nc3cc(/N=N/c4ccc(N)nc4N)ccc3c(N)c2c1`, the 50% effective concentration (EC50) worked out at 0.5 µM.

Another assay deals with HL-60. Put plainly: Cell cycle arrest in human HL-60 cells assessed as accumulation at S-phase at 3.125 to 6.25 uM measured after 24 hrs by propidium iodide staining based flow cytometry. In kind it is functional. The following applies: dose 3.125-6.25 µM. (In general: Flow cytometry measures light scatter and fluorescence of single cells or particles in a stream.)
On to `O=C(NC(NC(=S)Nc1ccc(I)cc1)C(Cl)(Cl)Cl)c1cccc(I)c1` (stereo not drawn), for which the outcome was Active.

System in a further assay: not listed separately
Put plainly: Antiproliferative activity against rat TGR-1 harboring c-Myc assessed as reduction in cell viability measured on day 3 by MTT assay. In kind it is functional. The following applies: TGR1, 72 h.
As to `CCOC(=O)c1cnn(-c2ccccc2)c1NC(=O)c1cc2nc(-c3ccco3)cc(C(F)(F)Cl)n2n1`, the EC50 was found to be 0.25 µM.

In general, EC50 refers to the midpoint of the concentration-response curve.
